Earlier results in patent US4913906A, “Novel controlled release dosage form of valproic acid” (priority 1985, dated 1990).

Columns and labels:
[1] = all currently used antiepileptics

| SMILES | fluctuations in the drug plasma level (chronic valpromide treatment) | absorption rate (compared with valproic acid) | biotransformation to VPA (in vivo) | elimination half-life compared with other antiepileptics [1] |
| --- | --- | --- | --- | --- |
| CCCC(CCC)C(N)=O [Valpromide, valpromide] | fewer fluctuations in the drug plasma level | slower absorption rate than valproic acid | biotransform to VPA before reaching the systemic circulation |  |
| CCCC(CCC)C(=O)O [VPA, valproic acid] |  |  |  | shortest elimination half-life of all currently used antiepileptics |
